Experimental data: patent US11945822B2, “Pyrazolo-triazine and/or pyrazolo-pxrimidine derivatives as selective inhibitor of cyclin dependent kinase” (QURIENT CO., LTD., priority 2018, dated 2024)

Legend:
[1] = target: T1, CDK1/Cyclin B (Homo sapiens, UniProt P06493); test: Enzymatic assay for CDK1 (FRET based LANCE Ultra kinase assay); type: biochemical; details: read-out: CDK1 enzymatic activity (IC50 range)
T1 construct: purchased Invitrogen PR4768C
How it was run: (§1)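 LANCE Ultra TR-FRET: ULight-MBP peptide (68 nM) with ATP at Km, […], 60 min at 23° C. EDTA plus Eu-anti-phospho-MBP added, another 60 min, then 665/615 nm emission read. Compounds tested as 8-dose 4-fold DMSO dilutions.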

[2] = target: T2, CDK5/p25 (Homo sapiens, UniProt Q00535); test: Enzymatic assay for CDK5 (FRET based LANCE Ultra kinase assay); type: biochemical; details: read-out: CDK5 enzymatic activity (IC50 range)
T2 construct: purchased Invitrogen PR8543B
How it was run: as §1

[3] = tested on: H460; test: Cellular H460 viability assay (CellTiter-Glo, 72 hours); type: cell-based; details: Homo sapiens, NCI-H460
How it was run: (§2)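 Growth inhibition is assessed over a 72-hour incubation at 37 °C in 5% CO2, relative to DMSO vehicle (final concentration less than 0.1%). Luminescence from CellTiter-Glo serves as the viability signal.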

[4] = tested on: HCT116; test: Cellular HCT116 viability assay (CellTiter-Glo, 72 hours); type: cell-based; details: Homo sapiens, HCT-116
How it was run: as §2

[5] = tested on: RPMI-8226; test: Cellular RPMI-8226 viability assay (CellTiter-Glo, 72 hours); type: cell-based; details: Homo sapiens
Protocol: All cell lines were routinely tested for mycoplasma.
The effect of the CDK7 inhibitor to inhibit the growth of target cancer cells was evaluated through the 72 hours time period of viability assay. Briefly, the candidate cell line ware plated in 96 well plate at the following density of cells respectively. […] DMSO solvent without compound served as a control and final DMSO concentration less than 0.1%. After 72 hours of incubation at 37° C., 5% CO2 incubator, cells were analyzed for the viability using the CellTiter-Glo Luminescent Cell Viability Assay (Promega, Cat #G7570). All viability assays were performed in duplicate and Luminescence was read using an Envision (Perkin Elmer, USA). Data was analyzed using XLfit software.

[6] = target: T3, CDK7/Cyclin H/MNAT1 (Homo sapiens, UniProt P50613); test: Enzymatic assay for CDK7 (FRET based LANCE Ultra kinase assay); type: biochemical; details: for IC50: read-out: CDK7 enzymatic activity (IC50 range)
T3 construct: purchased Invitrogen PR6749B
How it was run: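 Inhibition was measured at Km ATP by time-resolved FRET between a Eu anti-phospho antibody and a phosphorylated ULight peptide. The enzyme was the purified CDK7/cyclin complex, and data were curve-fitted.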

[7] = tested on: MV4-11; test: Cellular MV4-11 viability assay (CellTiter-Glo, 72 hours); type: cell-based; details: Homo sapiens
How it was run: as §2

[8] = target: T4, CDK2/Cyclin A (Homo sapiens, UniProt P24941); test: Enzymatic assay for CDK2 (FRET based LANCE Ultra kinase assay); type: biochemical; details: read-out: CDK2 enzymatic activity (IC50 range)
T4 construct: purchased Invitrogen PV6290
How it was run: as §1

[9] = tested on: MOLT-4; test: Cellular MOLT-4 viability assay (CellTiter-Glo, 72 hours); type: cell-based; details: Homo sapiens, MOLT4 viability assay
How it was run: as §2

T3 sequence (P50613 whole entry): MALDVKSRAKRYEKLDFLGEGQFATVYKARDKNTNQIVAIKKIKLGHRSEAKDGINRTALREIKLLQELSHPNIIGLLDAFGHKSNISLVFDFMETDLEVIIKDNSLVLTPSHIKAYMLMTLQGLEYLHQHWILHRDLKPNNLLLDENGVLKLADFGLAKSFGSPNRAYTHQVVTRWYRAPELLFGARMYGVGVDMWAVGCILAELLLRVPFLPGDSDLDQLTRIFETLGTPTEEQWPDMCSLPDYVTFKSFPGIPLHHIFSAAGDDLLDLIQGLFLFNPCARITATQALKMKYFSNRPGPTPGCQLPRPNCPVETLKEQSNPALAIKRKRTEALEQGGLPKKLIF
T3 sequence (P51946 whole entry partner): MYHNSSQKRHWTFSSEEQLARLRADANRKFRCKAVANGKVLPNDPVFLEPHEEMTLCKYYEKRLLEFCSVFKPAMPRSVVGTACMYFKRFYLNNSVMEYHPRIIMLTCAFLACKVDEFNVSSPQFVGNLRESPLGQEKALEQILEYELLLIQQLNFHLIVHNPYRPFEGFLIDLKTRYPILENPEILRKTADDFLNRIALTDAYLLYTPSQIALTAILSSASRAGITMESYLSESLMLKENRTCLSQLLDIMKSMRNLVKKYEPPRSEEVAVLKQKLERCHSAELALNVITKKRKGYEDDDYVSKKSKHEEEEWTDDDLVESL
T3 sequence (P51948 whole entry partner): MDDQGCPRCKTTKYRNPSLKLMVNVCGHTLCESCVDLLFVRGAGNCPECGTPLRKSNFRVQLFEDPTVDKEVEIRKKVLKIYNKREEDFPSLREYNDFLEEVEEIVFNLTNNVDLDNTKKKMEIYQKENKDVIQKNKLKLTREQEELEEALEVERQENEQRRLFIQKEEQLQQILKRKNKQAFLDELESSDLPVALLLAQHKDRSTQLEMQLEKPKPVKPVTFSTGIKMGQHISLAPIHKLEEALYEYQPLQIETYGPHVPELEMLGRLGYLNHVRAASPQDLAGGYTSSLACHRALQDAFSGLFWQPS
T2 sequence (Q00535 whole entry): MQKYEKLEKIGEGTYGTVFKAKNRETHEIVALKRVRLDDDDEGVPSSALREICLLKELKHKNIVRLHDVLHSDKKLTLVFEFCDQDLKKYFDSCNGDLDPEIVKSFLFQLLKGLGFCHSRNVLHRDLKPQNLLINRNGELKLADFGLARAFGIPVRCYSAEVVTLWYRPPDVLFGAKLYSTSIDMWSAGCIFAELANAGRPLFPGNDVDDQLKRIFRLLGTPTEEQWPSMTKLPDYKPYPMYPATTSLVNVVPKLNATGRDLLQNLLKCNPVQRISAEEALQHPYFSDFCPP
T2 sequence (Q15078 99-307 partner limits assumed): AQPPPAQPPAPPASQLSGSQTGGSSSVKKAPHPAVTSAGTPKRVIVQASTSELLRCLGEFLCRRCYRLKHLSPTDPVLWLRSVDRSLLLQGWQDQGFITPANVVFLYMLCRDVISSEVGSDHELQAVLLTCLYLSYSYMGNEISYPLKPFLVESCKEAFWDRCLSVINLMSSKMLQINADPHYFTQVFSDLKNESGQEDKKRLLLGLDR
T1 sequence (P06493 whole entry): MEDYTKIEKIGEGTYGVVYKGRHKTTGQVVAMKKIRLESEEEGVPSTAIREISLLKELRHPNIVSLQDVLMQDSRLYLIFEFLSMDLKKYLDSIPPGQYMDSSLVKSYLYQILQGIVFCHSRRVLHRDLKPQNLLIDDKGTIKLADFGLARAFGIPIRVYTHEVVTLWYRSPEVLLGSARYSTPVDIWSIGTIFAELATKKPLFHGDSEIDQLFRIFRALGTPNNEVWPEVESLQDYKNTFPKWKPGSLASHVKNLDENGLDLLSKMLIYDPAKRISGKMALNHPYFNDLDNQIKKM
T1 sequence (P14635 whole entry partner): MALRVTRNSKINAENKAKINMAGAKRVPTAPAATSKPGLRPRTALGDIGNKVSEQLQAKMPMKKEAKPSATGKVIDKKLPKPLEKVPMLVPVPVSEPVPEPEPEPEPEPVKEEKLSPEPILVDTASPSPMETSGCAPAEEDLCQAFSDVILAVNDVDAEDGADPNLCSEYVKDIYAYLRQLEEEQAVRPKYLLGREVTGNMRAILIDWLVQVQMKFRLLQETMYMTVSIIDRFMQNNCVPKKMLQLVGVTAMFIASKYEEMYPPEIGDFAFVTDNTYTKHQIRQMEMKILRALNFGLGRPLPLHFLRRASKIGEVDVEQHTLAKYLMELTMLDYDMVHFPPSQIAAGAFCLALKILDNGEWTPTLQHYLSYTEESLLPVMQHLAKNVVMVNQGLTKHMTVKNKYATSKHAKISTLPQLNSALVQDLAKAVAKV

Structure (SMILES)	IC50 [1] [nM]	IC50 [2] [nM]	IC50 [3] [nM]	IC50 [4] [nM]	IC50 [5] [nM]	CDK1/CDK7: Selectivity of CDK7 inhibition over CDK1 inhibition [6]	CDK2/CDK7: Selectivity of CDK7 inhibition over CDK2 inhibition [6]	CDK5/CDK7: Selectivity of CDK7 inhibition over CDK5 inhibition [6]	IC50 [6] [nM]	IC50 [7] [nM]	IC50 [8] [nM]	IC50 [9] [µM]
CC(C)c1cnn2c(NCc3ccccc3-n3cc4cc(C(N)=O)ccc4n3)nc(N3CCC(N)CC3)nc12 [Compound 146]	100 to 1000	100 to 1000	< 1000	< 1000	< 1000	A (A=greater than 200 fold)	A (A=greater than 200 fold)	B (B=less than 200 fold, but greater than 20 fold)	< 100	< 1000	100 to 1000	–
CC(C)c1cnn2c(NCc3ccccc3-c3cn4ccc(F)cc4n3)nc(N3CCC(N)CC3)nc12 [Compound 124]	100 to 1000	< 100	< 1000	< 1000	< 1000	B (B=less than 200 fold, but greater than 20 fold)	B (B=less than 200 fold, but greater than 20 fold)	C (C=less than 20 fold)	< 100	< 1000	100 to 1000	–
CC(C)c1cnn2c(NCc3ccccc3-n3cc4cc(C(=O)N5CCCC5)ccc4n3)nc(N3CCC(N)CC3)nc12 [Compound 147]	> 1000	100 to 1000	< 1000	< 1000	1000 to 10000	A (A=greater than 200 fold)	B (B=less than 200 fold, but greater than 20 fold)	B (B=less than 200 fold, but greater than 20 fold)	< 100	< 1000	> 1000	–
CC(C)c1cnn2c(NCc3ccccc3-c3cc4ccccc4[nH]3)nc(N3CCC(C(N)=O)CC3)nc12 [Compound 117]	> 1000	> 1000	–	–	1000 to 10000	A (A=greater than 200 fold)	A (A=greater than 200 fold)	B (B=less than 200 fold, but greater than 20 fold)	100 to 1000	–	> 1000	1 to 10
CC(C)c1cnn2c(NCc3ccccc3-n3cc4ccncc4n3)nc(N3CCC(N)CC3)nc12 [Compound 139]	> 1000	100 to 1000	< 1000	< 1000	< 1000	A (A=greater than 200 fold)	B (B=less than 200 fold, but greater than 20 fold)	B (B=less than 200 fold, but greater than 20 fold)	< 100	< 1000	100 to 1000	–
CC(C)c1cnn2c(NCc3ccccc3-n3ncc4ccccc43)nc(N3CCC(N)CC3)nc12 [Compound 58]	–	–	–	–	1000 to 10000	–	–	–	–	–	–	1 to 10
CC(C)c1cnn2c(NCc3ccccc3-n3cc4c(n3)CCOC4)nc(N3CCC(N)CC3)nc12 [Compound 133]	> 1000	100 to 1000	< 1000	< 1000	< 1000	A (A=greater than 200 fold)	B (B=less than 200 fold, but greater than 20 fold)	B (B=less than 200 fold, but greater than 20 fold)	< 100	< 1000	100 to 1000	–
CC(C)c1cnn2c(NCc3ccccc3N3Cc4ccccc4C3)nc(N3CCC(N)CC3)nc12 [Compound 128]	100 to 1000	< 100	< 1000	–	< 1000	B (B=less than 200 fold, but greater than 20 fold)	B (B=less than 200 fold, but greater than 20 fold)	C (C=less than 20 fold)	< 100	< 1000	100 to 1000	–
CC(C)c1cnn2c(NCc3ccccc3-c3ccc4[nH]cnc4c3)nc(N3CCC(N)CC3)nc12 [Compound 123]	100 to 1000	< 100	< 1000	–	< 1000	B (B=less than 200 fold, but greater than 20 fold)	B (B=less than 200 fold, but greater than 20 fold)	C (C=less than 20 fold)	< 100	< 1000	100 to 1000	–
CC(C)c1cnn2c(NCc3c(Cl)cccc3-c3ccc4[nH]cnc4c3)nc(N3CCC(N)CC3)nc12 [Compound 136]	> 1000	100 to 1000	1000 to 10000	< 1000	1000 to 10000	A (A=greater than 200 fold)	A (A=greater than 200 fold)	B (B=less than 200 fold, but greater than 20 fold)	< 100	< 1000	> 1000	–
CC(C)c1cnn2c(NCc3ccccc3-n3cc4cc(C#N)ccc4n3)nc(N3CCC(N)CC3)nc12 [Compound 120]	> 1000	100 to 1000	< 1000	–	< 1000	A (A=greater than 200 fold)	A (A=greater than 200 fold)	B (B=less than 200 fold, but greater than 20 fold)	< 100	< 1000	100 to 1000	–
CC(C)c1cnn2c(NCc3ccccc3-c3cn4c(n3)CCCC4)nc(N3CCC(N)CC3)nc12 [Compound 122]	> 1000	100 to 1000	< 1000	< 1000	< 1000	A (A=greater than 200 fold)	B (B=less than 200 fold, but greater than 20 fold)	B (B=less than 200 fold, but greater than 20 fold)	< 100	< 1000	100 to 1000	–
CC(C)c1cnn2c(NCc3cccc(-c4cc5ccccc5[nH]4)c3)nc(N3CCC(N)CC3)nc12 [Compound 118]	> 1000	100 to 1000	< 1000	–	< 1000	B (B=less than 200 fold, but greater than 20 fold)	B (B=less than 200 fold, but greater than 20 fold)	B (B=less than 200 fold, but greater than 20 fold)	< 100	–	100 to 1000	–
CC(C)c1cnn2c(NCc3ccccc3-c3ccc4[nH]c(=O)[nH]c4c3)nc(N3CCC(N)CC3)nc12 [Compound 140]	100 to 1000	< 100	1000 to 10000	–	1000 to 10000	B (B=less than 200 fold, but greater than 20 fold)	B (B=less than 200 fold, but greater than 20 fold)	C (C=less than 20 fold)	< 100	< 1000	100 to 1000	–
CC(C)c1cnn2c(NCc3ccccc3-c3[nH]c4ccccc4c3Cl)nc(N3CCC(N)CC3)nc12 [Compound 119]	> 1000	100 to 1000	< 1000	–	1000 to 10000	A (A=greater than 200 fold)	B (B=less than 200 fold, but greater than 20 fold)	B (B=less than 200 fold, but greater than 20 fold)	< 100	1000 to 10000	100 to 1000	–
CC(C)CC(=O)Nc1cccc2cc(-c3ccccc3CNc3nc(N4CCC(N)CC4)nc4c(C(C)C)cnn34)[nH]c12 [Compound 145]	100 to 1000	< 100	< 1000	< 1000	< 1000	B (B=less than 200 fold, but greater than 20 fold)	B (B=less than 200 fold, but greater than 20 fold)	C (C=less than 20 fold)	< 100	< 1000	100 to 1000	–
